Laboratory results from PubChem BioAssay (NCI).
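Interpolation was linear, between the two tested concentrations surrounding the appropriate level; five concentrations were tested over 48 hours in 96-well plates. GI50 is the concentration that inhibits growth by half. TGI: concentration producing complete growth inhibition.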

Legend:
Assay in all cases: NCI anticancer screen, dose series, 48 h
[1] = system: CCRF-CEM leukemia
[2] = system: SK-MEL-2 melanoma
[3] = system: PC-3 prostate
[4] = system: UO-31 renal
[5] = system: BT-549 breast
[6] = system: TK-10 renal
[7] = system: COLO 205 colon
[8] = system: RXF 393 renal
[9] = system: NCI/ADR-RES ovarian
[10] = system: HOP-92 NSCLC
[11] = system: IGROV1 ovarian
[12] = system: OVCAR-8 ovarian
[13] = system: HCT-15 colon
[14] = system: SK-OV-3 ovarian
[15] = system: UACC-62 melanoma
[16] = system: ACHN renal
[17] = system: DU-145 prostate
[18] = system: MDA-MB-435
[19] = system: K-562 leukemia
[20] = system: SW-620 colon
[21] = system: OVCAR-3 ovarian
[22] = system: M14 melanoma
[23] = system: U251 CNS
[24] = system: MOLT-4 leukemia
[25] = system: OVCAR-4 ovarian
[26] = system: NCI-H522 lung
[27] = system: SF-268 CNS
[28] = system: EKVX NSCLC
[29] = system: RPMI-8226 leukemia
[30] = system: A549 NSCLC
[31] = system: SNB-19 CNS
[32] = system: HT29 colon
[33] = system: UACC-257 melanoma
[34] = system: 786-0 renal
[35] = system: MDA-MB-231 breast
[36] = system: A498 renal
[37] = system: OVCAR-5 ovarian
[38] = system: HCC-2998 colon
[39] = system: SK-MEL-5 melanoma
[40] = system: NCI-H23 lung
[41] = system: SK-MEL-28 melanoma
[42] = system: LOX IMVI melanoma
[43] = system: HOP-62 NSCLC
[44] = system: HS 578T breast
[45] = system: SN12C renal
[46] = system: MCF7 breast
[47] = system: T-47D breast
[48] = system: SNB-75 CNS
[49] = system: NCI-H460 lung
[50] = system: SF-539 CNS
[51] = system: KM12 colon
[52] = system: HL-60(TB) leukemia
[53] = system: SR leukemia
[54] = system: HCT-116 colon
[55] = system: SF-295 CNS
[56] = system: NCI-H226 lung
[57] = system: MALME-3M melanoma

Cn1ccnc1C(=O)/C=C/c1ccc(CC(=O)Nc2ccccc2)cc1
GI50 [1]: 2.37 µM | TGI [1]: > 25 µM | GI50 [2]: 5.06 µM | TGI [2]: 13.3 µM | GI50 [3]: 3.29 µM | TGI [3]: 8.55 µM | GI50 [4]: 2.77 µM | TGI [4]: 5.86 µM | GI50 [5]: 2.95 µM | TGI [5]: 7.54 µM | GI50 [6]: 7.44 µM | TGI [6]: 19.9 µM | GI50 [7]: 3.77 µM | TGI [7]: 9.39 µM | GI50 [8]: 3.86 µM | TGI [8]: 7.99 µM | GI50 [9]: 7.54 µM | TGI [9]: > 25 µM | GI50 [10]: 6.63 µM | TGI [10]: > 25 µM | GI50 [11]: 2.11 µM | TGI [11]: 14.5 µM | GI50 [12]: 6.44 µM | TGI [12]: > 25 µM | GI50 [13]: 1.25 µM | TGI [13]: 8.77 µM | GI50 [14]: 9.3 µM | TGI [14]: > 25 µM | GI50 [15]: 4.13 µM | TGI [15]: 9.95 µM | GI50 [16]: 5.24 µM | TGI [16]: 15.6 µM | GI50 [17]: 1.1 µM | TGI [17]: 4.03 µM | GI50 [18]: 4.3 µM | TGI [18]: 13.7 µM | GI50 [19]: 1.07 µM | TGI [19]: > 25 µM | GI50 [20]: 2.75 µM | TGI [20]: 8.81 µM | GI50 [21]: 1.87 µM | TGI [21]: 5.37 µM | GI50 [22]: 4.55 µM | TGI [22]: 10.8 µM | GI50 [23]: 1.57 µM | TGI [23]: 5.27 µM | GI50 [24]: 4.3 µM | TGI [24]: > 25 µM | GI50 [25]: 4.12 µM | TGI [25]: > 25 µM | GI50 [26]: 3.2 µM | TGI [26]: 6.45 µM | GI50 [27]: 3.72 µM | TGI [27]: 13.9 µM | GI50 [28]: 6.28 µM | TGI [28]: > 25 µM | GI50 [29]: 1.45 µM | TGI [29]: 9.7 µM | GI50 [30]: 6.6 µM | TGI [30]: > 25 µM | GI50 [31]: 1.9 µM | TGI [31]: 11.9 µM | GI50 [32]: 2.4 µM | TGI [32]: 6.82 µM | GI50 [33]: 6.98 µM | TGI [33]: 21.1 µM | GI50 [34]: 2.67 µM | TGI [34]: 7.86 µM | GI50 [35]: 2.37 µM | TGI [35]: 9.61 µM | GI50 [36]: 6.08 µM | TGI [36]: 14.5 µM | GI50 [37]: 4.19 µM | TGI [37]: 14.7 µM | GI50 [38]: 4.42 µM | TGI [38]: 8.96 µM | GI50 [39]: 4.18 µM | TGI [39]: 7.9 µM | GI50 [40]: 3.24 µM | TGI [40]: 11.3 µM | GI50 [41]: 5.69 µM | TGI [41]: 17.8 µM | GI50 [42]: 1.03 µM | TGI [42]: 4.27 µM | GI50 [43]: 3.75 µM | TGI [43]: 20.8 µM | GI50 [44]: 14.2 µM | TGI [44]: > 25 µM | GI50 [45]: 3.84 µM | TGI [45]: 14.3 µM | GI50 [46]: 1.13 µM | TGI [46]: 10.3 µM | GI50 [47]: 5.23 µM | TGI [47]: > 25 µM | GI50 [48]: > 25 µM | TGI [48]: > 25 µM | GI50 [49]: 2.32 µM | TGI [49]: 9.52 µM | GI50 [50]: 2.43 µM | TGI [50]: 7.52 µM | GI50 [51]: 3.39 µM | TGI [51]: 8.17 µM | GI50 [52]: 1.57 µM | TGI [52]: 9.35 µM | GI50 [53]: 1.16 µM | TGI [53]: 18.9 µM | GI50 [54]: 1.68 µM | TGI [54]: 5.13 µM | GI50 [55]: 5.44 µM | TGI [55]: 16.5 µM | GI50 [56]: 8.59 µM | TGI [56]: > 25 µM | GI50 [57]: 5.93 µM | TGI [57]: 22 µM
